Results published in patent US11696937B2, “Glycopeptide compounds having activity of resisting drug-resistant bacteria, and preparation method and application thereof” (priority 2018, dated 2023).
In brackets after ≈: the same amount, converted by molar mass.

How the values were obtained:
[1] = system: wild AB zebrafish; assay: Zebrafish toxicity test; type: in vivo; conditions: intravenous injection, 72 hours of treatment, samples in phosphate form
Protocol: A zebrafish toxicity test of the compounds in Table 1 is also tested. Randomly select wild AB zebrafish in a six-well plate, and inject each test sample at a dose of 50, 100, 150, 200, and 250 ng/tail intravenously. At the same time, a normal control group and a solvent control group (aqueous phosphoric acid) are set; During this experiment, the death of zebrafish is observed and recorded every day and the dead fish are removed. After 72 hours of treatment, the death of zebrafish is counted. Calculate the LD50 of each test product to zebrafish.
All samples are tested for zebrafish toxicity in phosphate form.

[2] = system: ATCC43300 (MRSA); assay: In vitro antibacterial activity (MIC) against MRSA; type: cell-based, Methicillin-resistant Staphylococcus aureus; conditions: for MIC ATCC43300 (MRSA): MRSA strain ATCC43300, method of Pharmacopoeia of the People's Republic of China (2015 edition)
Protocol: (§1) An antibacterial activity of the compounds in Table 1 is determined in vitro, and a minimum inhibitory concentration (MIC) is read. The determination method refers to the method of the Pharmacopoeia of the People's Republic of China (2015 edition). The MRSA detection strain is purchased from ATCC, and the VRE detection strain is from the clinically isolated drug-resistant strain 07-W3-45 from Shanghai Huashan Hospital. Known antibiotic oritavancin (phosphate) is used for a reference drug.

[3] = system: Clinical isolates 07-W3-45 (VRE); assay: In vitro antibacterial activity (MIC) against VRE; type: cell-based, Vancomycin-resistant Enterococcus; conditions: for MIC Clinical isolates 07-W3-45 (VRE): clinically isolated drug-resistant strain 07-W3-45 from Shanghai Huashan Hospital
Protocol: as §1

SMILES	Zebrafish LD50 [1] [ng/tail]	MIC ATCC43300 (MRSA) [2] [µg/mL]	MIC Clinical isolates 07-W3-45 (VRE) [3] [µg/mL]	MIC ([2]; Staphylococcus aureus, read-out: MIC ATCC43300 (MRSA)) [µg/mL]	MIC ([3]; Enterococcus, VRE, read-out: MIC Clinical isolates 07-W3-45 (VRE)) [µg/mL]
CNC(CC(C)C)C(=O)NC1C(=O)NC(CC(N)=O)C(=O)NC2C(=O)NC3C(=O)NC(C(=O)NC(C(=O)O)c4cc(O)cc(O)c4-c4cc3ccc4O)C(OC3CC(C)(N)C(O)C(C)O3)c3ccc(c(Cl)c3)Oc3cc2cc(c3OC2OC(CO)C(O)C(O)C2OC2CC(C)(NCc3ccc(NCc4ccc(C)cc4)cc3)C(O)C(C)O2)Oc2ccc(cc2Cl)C1O (stereo not drawn) [Compound 18]	128	0.5 (≈ 0.278 µM)	1 (≈ 0.555 µM)	–	–
CNC(CC(C)C)C(=O)NC1C(=O)NC(CC(N)=O)C(=O)NC2C(=O)NC3C(=O)NC(C(=O)NC(C(=O)O)c4cc(O)cc(O)c4-c4cc3ccc4O)C(OC3CC(C)(N)C(O)C(C)O3)c3ccc(c(Cl)c3)Oc3cc2cc(c3OC2OC(CO)C(O)C(O)C2OC2CC(C)(NCc3ccc(NCc4ccc(Cl)cc4)cc3)C(O)C(C)O2)Oc2ccc(cc2Cl)C1O (stereo not drawn) [Compound 19]	117	0.25 (≈ 0.137 µM)	0.2 (≈ 0.11 µM)	–	–
CNC(CC(C)C)C(=O)NC1C(=O)NC(CC(N)=O)C(=O)NC2C(=O)NC3C(=O)NC(C(=O)NC(C(=O)O)c4cc(O)cc(O)c4-c4cc3ccc4O)C(OC3CC(C)(N)C(O)C(C)O3)c3ccc(c(Cl)c3)Oc3cc2cc(c3OC2OC(CO)C(O)C(O)C2OC2CC(C)(NCc3ccc(NCCc4ccccc4)cc3)C(O)C(C)O2)Oc2ccc(cc2Cl)C1O (stereo not drawn) [Compound 20]	189	0.5 (≈ 0.278 µM)	2 (≈ 1.11 µM)	–	–
CNC(CC(C)C)C(=O)NC1C(=O)NC(CC(N)=O)C(=O)NC2C(=O)NC3C(=O)NC(C(=O)NC(C(=O)O)c4cc(O)cc(O)c4-c4cc3ccc4O)C(OC3CC(C)(N)C(O)C(C)O3)c3ccc(c(Cl)c3)Oc3cc2cc(c3OC2OC(CO)C(O)C(O)C2OC2CC(C)(NCc3ccc(NCCc4ccc(Cl)cc4)cc3)C(O)C(C)O2)Oc2ccc(cc2Cl)C1O (stereo not drawn) [Compound 21]	102	0.016 (≈ 0.00871 µM)	0.5 (≈ 0.272 µM)	–	–
CNC(CC(C)C)C(=O)NC1C(=O)NC(CC(N)=O)C(=O)NC2C(=O)NC3C(=O)NC(C(=O)NC(C(=O)O)c4cc(O)cc(O)c4-c4cc3ccc4O)C(OC3CC(C)(N)C(O)C(C)O3)c3ccc(c(Cl)c3)Oc3cc2cc(c3OC2OC(CO)C(O)C(O)C2OC2CC(C)(NCc3ccc(NCCc4ccc(C(F)(F)F)cc4)cc3)C(O)C(C)O2)Oc2ccc(cc2Cl)C1O (stereo not drawn) [Compound 22]	142	0.032 (≈ 0.0171 µM)	0.25 (≈ 0.134 µM)	–	–
CNC(CC(C)C)C(=O)NC1C(=O)NC(CC(N)=O)C(=O)NC2C(=O)NC3C(=O)NC(C(=O)NC(C(=O)O)c4cc(O)cc(O)c4-c4cc3ccc4O)C(OC3CC(C)(N)C(O)C(C)O3)c3ccc(c(Cl)c3)Oc3cc2cc(c3OC2OC(CO)C(O)C(O)C2OC2CC(C)(NCc3ccc(NCCc4ccc(OC)cc4)cc3)C(O)C(C)O2)Oc2ccc(cc2Cl)C1O (stereo not drawn) [Compound 23]	192	0.5 (≈ 0.273 µM)	1 (≈ 0.546 µM)	–	–
CNC(CC(C)C)C(=O)NC1C(=O)NC(CC(N)=O)C(=O)NC2C(=O)NC3C(=O)NC(C(=O)NC(C(=O)O)c4cc(O)cc(O)c4-c4cc3ccc4O)C(OC3CC(C)(N)C(O)C(C)O3)c3ccc(c(Cl)c3)Oc3cc2cc(c3OC2OC(CO)C(O)C(O)C2OC2CC(C)(NCc3ccc(NCCCc4ccccc4)cc3)C(O)C(C)O2)Oc2ccc(cc2Cl)C1O (stereo not drawn) [Compound 24]	153	0.5 (≈ 0.275 µM)	1 (≈ 0.551 µM)	–	–
CNC(CC(C)C)C(=O)NC1C(=O)NC(CC(N)=O)C(=O)NC2C(=O)NC3C(=O)NC(C(=O)NC(C(=O)O)c4cc(O)cc(O)c4-c4cc3ccc4O)C(OC3CC(C)(N)C(O)C(C)O3)c3ccc(c(Cl)c3)Oc3cc2cc(c3OC2OC(CO)C(O)C(O)C2OC2CC(C)(NCc3ccc(NCCCc4ccc(Cl)cc4)cc3)C(O)C(C)O2)Oc2ccc(cc2Cl)C1O (stereo not drawn) [Compound 25]	97	0.064 (≈ 0.0346 µM)	0.25 (≈ 0.135 µM)	–	–
CN[C@H](CC(C)C)C(=O)N[C@H]1C(=O)N[C@@H](CC(N)=O)C(=O)N[C@H]2C(=O)N[C@H]3C(=O)N[C@H](C(=O)N[C@H](C(=O)O)c4cc(O)cc(O)c4-c4cc3ccc4O)[C@H](O[C@H]3C[C@](C)(N)[C@@H](O)[C@H](C)O3)c3ccc(c(Cl)c3)Oc3cc2cc(c3O[C@@H]2O[C@H](CO)[C@@H](O)[C@H](O)[C@H]2O[C@H]2C[C@](C)(NCc3ccc(-c4ccc(Cl)cc4)cc3)[C@@H](O)[C@H](C)O2)Oc2ccc(cc2Cl)[C@H]1O [Orivancin, oritavancin, reference compound]	89.4	–	–	0.5 (≈ 0.279 µM)	2 (≈ 1.12 µM)
